These results are taken from PMC10650756, “Synthesis and In Vivo Antiarrhythmic Activity Evaluation of Novel Scutellarein Analogues as Voltage-Gated Nav1.5 and Cav1.2 Channels Blockers” (Molecules, 2023).

What all share (format): cell-based
Experiment [1] deals with T1, Cav1.2 (Homo sapiens, UniProt Q13936).
T1 construct: gene CACNA1C; human Cav1.2 expressed in HEK293 cells (plasmid printed as pCDNA3.1hCACNA2D)
Kind of experiment: whole-cell patch clamp of ICa in transfected HEK293 cells, VH -80 mV; IC50 undefined (solubility). To be noted: read-out: % reduction of ICa amplitude at 30 μM.

In experiment [2] the target is T2, Nav1.5 (Homo sapiens, UniProt Q14524).
T2 construct: gene SCN5A; human Nav1.5 (pCDNA3.1hSCN5A) expressed in HEK293 cells
Description: whole-cell patch clamp in transfected HEK293 cells; steady-state inactivation left-shifted at […], no change in current density or activation. (In general: Patch clamp records ionic current or voltage across a cell membrane.)

Experiment [3] addresses T1, Cav1.2. Description: whole-cell patch clamp of ICa in transfected HEK293 cells, VH -80 mV. To be noted: read-out: % reduction of ICa amplitude at 1 μM.

T1 sequence (Q13936 whole entry): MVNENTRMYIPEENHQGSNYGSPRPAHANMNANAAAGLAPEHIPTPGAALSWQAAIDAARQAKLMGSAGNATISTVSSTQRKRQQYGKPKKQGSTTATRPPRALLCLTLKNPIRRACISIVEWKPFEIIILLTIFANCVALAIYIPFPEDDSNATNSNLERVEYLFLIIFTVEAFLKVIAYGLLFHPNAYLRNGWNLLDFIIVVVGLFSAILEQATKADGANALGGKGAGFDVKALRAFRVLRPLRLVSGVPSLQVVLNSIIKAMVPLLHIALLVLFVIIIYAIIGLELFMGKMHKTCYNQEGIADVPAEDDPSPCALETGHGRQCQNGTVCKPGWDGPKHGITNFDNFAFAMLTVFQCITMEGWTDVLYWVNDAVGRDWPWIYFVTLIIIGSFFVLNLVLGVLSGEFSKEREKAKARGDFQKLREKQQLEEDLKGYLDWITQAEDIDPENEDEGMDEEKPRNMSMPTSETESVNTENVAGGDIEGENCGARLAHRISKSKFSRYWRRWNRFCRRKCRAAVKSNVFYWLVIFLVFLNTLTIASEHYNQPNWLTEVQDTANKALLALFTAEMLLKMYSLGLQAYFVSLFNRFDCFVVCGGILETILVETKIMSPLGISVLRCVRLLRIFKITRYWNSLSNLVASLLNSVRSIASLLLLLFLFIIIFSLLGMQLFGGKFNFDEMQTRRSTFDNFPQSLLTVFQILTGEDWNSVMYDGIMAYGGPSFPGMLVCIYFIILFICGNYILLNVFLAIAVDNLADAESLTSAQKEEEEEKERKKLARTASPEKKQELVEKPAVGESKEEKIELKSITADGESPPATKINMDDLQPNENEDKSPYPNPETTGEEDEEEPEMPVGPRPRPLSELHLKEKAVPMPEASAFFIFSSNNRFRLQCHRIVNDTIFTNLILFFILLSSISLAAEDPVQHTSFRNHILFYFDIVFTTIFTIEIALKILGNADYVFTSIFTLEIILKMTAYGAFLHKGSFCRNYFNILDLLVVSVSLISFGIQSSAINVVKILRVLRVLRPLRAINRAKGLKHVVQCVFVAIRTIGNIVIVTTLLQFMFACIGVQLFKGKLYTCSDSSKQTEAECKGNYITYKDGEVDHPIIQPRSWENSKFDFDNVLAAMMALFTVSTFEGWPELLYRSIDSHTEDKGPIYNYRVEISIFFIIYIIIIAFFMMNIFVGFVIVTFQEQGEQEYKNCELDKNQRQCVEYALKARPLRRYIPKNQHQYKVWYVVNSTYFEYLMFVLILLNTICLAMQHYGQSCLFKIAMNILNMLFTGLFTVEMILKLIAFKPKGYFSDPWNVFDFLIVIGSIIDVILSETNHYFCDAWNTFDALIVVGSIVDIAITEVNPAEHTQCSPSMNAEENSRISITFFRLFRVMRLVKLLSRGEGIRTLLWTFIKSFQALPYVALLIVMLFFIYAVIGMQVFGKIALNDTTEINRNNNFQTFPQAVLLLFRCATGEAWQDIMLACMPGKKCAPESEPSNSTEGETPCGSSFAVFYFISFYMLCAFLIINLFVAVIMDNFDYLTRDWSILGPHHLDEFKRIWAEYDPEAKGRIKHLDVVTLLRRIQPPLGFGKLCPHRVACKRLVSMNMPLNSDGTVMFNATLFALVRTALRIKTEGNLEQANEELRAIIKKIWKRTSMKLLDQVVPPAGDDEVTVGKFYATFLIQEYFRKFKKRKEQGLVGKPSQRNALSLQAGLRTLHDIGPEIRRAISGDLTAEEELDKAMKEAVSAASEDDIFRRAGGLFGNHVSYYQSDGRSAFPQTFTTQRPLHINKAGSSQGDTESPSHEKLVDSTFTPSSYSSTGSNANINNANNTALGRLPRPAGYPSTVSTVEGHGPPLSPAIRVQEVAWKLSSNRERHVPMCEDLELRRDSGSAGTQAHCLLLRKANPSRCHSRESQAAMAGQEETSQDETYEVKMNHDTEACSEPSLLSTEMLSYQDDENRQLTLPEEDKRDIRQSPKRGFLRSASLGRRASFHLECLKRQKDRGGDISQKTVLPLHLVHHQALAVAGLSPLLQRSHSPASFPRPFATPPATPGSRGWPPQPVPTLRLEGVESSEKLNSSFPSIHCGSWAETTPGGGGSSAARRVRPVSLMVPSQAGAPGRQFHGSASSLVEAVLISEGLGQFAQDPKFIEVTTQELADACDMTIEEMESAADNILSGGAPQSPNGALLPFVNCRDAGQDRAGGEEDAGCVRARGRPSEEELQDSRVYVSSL
T2 sequence (Q14524 whole entry): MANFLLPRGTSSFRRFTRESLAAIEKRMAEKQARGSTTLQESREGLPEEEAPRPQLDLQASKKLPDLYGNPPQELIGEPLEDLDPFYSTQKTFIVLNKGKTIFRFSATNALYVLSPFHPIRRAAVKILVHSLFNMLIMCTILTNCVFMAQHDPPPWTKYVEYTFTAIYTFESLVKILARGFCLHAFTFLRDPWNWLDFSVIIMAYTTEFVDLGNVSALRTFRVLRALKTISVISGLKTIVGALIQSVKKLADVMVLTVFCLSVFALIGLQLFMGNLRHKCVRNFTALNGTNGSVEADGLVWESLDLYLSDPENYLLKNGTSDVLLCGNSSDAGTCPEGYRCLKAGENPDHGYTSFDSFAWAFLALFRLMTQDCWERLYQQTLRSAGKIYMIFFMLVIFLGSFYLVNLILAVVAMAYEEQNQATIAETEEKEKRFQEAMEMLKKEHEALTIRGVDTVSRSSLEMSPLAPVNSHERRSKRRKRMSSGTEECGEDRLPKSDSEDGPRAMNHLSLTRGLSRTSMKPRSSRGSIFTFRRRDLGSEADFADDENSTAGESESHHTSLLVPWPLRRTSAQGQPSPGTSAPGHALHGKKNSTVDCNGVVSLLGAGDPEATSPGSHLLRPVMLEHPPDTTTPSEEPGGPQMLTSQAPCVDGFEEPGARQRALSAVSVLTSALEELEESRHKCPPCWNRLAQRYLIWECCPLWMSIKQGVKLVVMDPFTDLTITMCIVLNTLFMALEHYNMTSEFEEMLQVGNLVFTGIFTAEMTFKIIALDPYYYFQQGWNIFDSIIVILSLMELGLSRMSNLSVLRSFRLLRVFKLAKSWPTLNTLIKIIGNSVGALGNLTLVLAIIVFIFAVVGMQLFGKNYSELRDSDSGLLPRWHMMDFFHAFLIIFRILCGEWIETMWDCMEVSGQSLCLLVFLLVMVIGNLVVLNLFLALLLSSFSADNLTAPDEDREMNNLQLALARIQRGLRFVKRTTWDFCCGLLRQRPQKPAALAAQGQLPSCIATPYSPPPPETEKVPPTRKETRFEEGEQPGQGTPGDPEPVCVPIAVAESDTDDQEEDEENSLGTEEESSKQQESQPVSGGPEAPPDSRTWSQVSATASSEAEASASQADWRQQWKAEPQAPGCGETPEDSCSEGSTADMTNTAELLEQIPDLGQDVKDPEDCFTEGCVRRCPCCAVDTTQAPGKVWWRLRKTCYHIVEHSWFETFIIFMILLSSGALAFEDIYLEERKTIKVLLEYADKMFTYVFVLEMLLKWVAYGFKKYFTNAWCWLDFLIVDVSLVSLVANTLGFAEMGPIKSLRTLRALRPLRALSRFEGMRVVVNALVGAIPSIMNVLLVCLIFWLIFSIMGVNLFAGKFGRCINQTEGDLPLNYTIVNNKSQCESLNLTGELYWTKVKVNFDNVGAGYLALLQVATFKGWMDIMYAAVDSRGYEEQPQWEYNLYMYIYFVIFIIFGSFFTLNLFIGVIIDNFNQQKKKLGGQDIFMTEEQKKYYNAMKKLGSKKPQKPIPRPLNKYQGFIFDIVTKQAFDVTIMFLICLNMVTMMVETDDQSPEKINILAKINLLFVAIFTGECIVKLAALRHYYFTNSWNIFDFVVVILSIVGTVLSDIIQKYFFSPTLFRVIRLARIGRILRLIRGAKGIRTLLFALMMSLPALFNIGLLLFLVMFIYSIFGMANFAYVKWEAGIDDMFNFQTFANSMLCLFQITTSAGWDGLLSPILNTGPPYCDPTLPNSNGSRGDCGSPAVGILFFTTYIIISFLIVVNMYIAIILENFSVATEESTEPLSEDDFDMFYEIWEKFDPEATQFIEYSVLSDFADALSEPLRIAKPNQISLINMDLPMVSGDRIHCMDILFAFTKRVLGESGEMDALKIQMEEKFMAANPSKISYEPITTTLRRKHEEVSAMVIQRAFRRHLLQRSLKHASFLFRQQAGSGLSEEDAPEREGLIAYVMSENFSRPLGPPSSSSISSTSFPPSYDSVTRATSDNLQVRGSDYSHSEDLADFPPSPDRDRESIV

Take `CC(=O)Oc1ccc(-c2cc(=O)c3c(O)c4c(cc3o2)OC(c2ccccc2)(c2ccccc2)O4)cc1` [10e, 4-(9-Hydroxy-8-oxo-2,2-diphenyl-8H-[1,3]dioxolo[4,5-g]chromen-6-yl)phenyl acetate]: the inhibition at 30 µM in experiment [1] was ~32.6%. The “whole-cell patch clamp in transfected HEK293 cells; steady-state inactivation le” value in experiment [2] was −94.1 ± 1.7 mV (inactivation V1/2 at 30 μM; control −84.4 ± 0.6 mV). With `COC(=O)C1=C(C)NC(C)=C(C(=O)OC)C1c1ccccc1[N+](=O)[O-]` [Nifedipine], in experiment [3], the inhibition at 1 µM was ~97.9%.
